Assays:
EryBV = EryBV (Saccharopolyspora erythraea, UniProt O33939); settings: BL21(DE3)/pHL71/pHL50, 100 mg/l 6dEB, 10 μM IPTG, 20 °C, 72 h; TDP-L-mycarose made in the cell
DesIV = target: T1, DesIV (Streptomyces venezuelae, UniProt Q9ZGH3); assay: HPLC, UV […] nm; assay type: biochemical; settings: 1 mM TDP-D-glucose, 1 mM NAD+, 8 μM DesIV, 100 mM phosphate pH 8.0, 1 mM DTT, 5% glycerol, 25 °C
T1 construct: recombinant from E. coli (pET28/pET21-type vectors)
T1 sequence (Q9ZGH3 1-337): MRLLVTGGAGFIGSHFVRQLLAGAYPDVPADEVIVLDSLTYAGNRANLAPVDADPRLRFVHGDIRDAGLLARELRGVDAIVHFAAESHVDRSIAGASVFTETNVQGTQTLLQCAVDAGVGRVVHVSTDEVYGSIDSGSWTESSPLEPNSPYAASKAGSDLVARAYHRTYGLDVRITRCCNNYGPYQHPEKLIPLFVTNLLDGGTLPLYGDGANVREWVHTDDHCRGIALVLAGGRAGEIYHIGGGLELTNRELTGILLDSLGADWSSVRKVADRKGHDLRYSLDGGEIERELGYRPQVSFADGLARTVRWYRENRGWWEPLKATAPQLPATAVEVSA

EryCII/EryCIII = EryCII/EryCIII (Saccharopolyspora erythraea, UniProt A4F7P3); settings: BL21(DE3)/pHL50, 100 mg/l αMEB, 10 μM IPTG, 20 °C, 72 h; TDP-D-desosamine made in the cell

| SMILES | HPLC, UV 264 nm (DesIV) | also measured |
| --- | --- | --- |
| CC[C@H]1OC(=O)[C@H](C)[C@@H](O)[C@H](C)[C@@H](O)[C@@H](C)C[C@@H](C)C(=O)[C@H](C)[C@@H](O)[C@H]1C [6dEB] | – | whole-cell conversion to 6-deoxyerythromycin D (with EryCII/EryCIII), B. subtili (EryBV): EryBV, which ordinarily transfers the mycarose sugar onto erythronolide B, is also capable of recognizing 6dEB |
| Cc1cn([C@H]2C[C@H](O)[C@@H](COP(=O)(O)OP(=O)(O)O[C@H]3O[C@H](CO)[C@@H](O)[C@H](O)[C@H]3O)O2)c(=O)[nH]c1=O [A, TDP-D-glucose] | Conversion of TDP-Glucose to TDP-4-Keto-6-Deoxy-Glucose by DesIV | – |
| Cc1cn([C@H]2C[C@H](O)[C@@H](COP(=O)(O)OP(=O)(O)O[C@H]3O[C@H](C)C(=O)[C@H](O)[C@H]3O)O2)c(=O)[nH]c1=O [B, TDP-4-keto-6-deoxy-D-glucose] | Conversion of TDP-Glucose to TDP-4-Keto-6-Deoxy-Glucose by DesIV | – |
| CC[C@H]1OC(=O)[C@H](C)[C@@H](O[C@H]2C[C@@](C)(O)[C@@H](O)[C@H](C)O2)[C@H](C)[C@@H](O)[C@](C)(O)C[C@@H](C)C(=O)[C@H](C)[C@@H](O)[C@H]1C [L, αMEB] | – | % conversion (EryCII/EryCIII): ~ 25% |
